Data taken from patent US20240252677A1, “ONE-COMPONENT DELIVERY SYSTEM FOR NUCLEIC ACIDS” (The Trustees of the University of Pennsylvania, priority 2021, published 2024).
Marks after values point to notes of the source that are not given here.

Assays:
[1] = test system: spleen; experiment: In vivo mRNA delivery, IVIS imaging of organs: spleen; design: species or system mice; key to Organs with luminescence: spleen: strong: Strong meant the luminescence intensity in that organ was relatively high, compared to other organs; weak: Weak meant the luminescence intensity in that organ was relatively low, compared to other organs; details: Table 17; mice, IVIS, 4-6 h after injection; intensity relative to other organs
Protocol: The exposure time was 1 min.
Tissue luminescence signal was measured on the IVIS imaging system using an exposure time of 60 seconds using medium binning (binning=8) to ensure that the signal obtained was within operative detection range. […] Bioluminescence imaging was performed as described above.
Tissue luminescence signal was measured on the IVIS imaging system using a certain exposure time (60, 30 or 15 seconds) and medium binning (binning=8) to ensure that the signal obtained was within operative detection range.

[2] = Dimensions (size, PDI) of DNPs co-assembled from IAJDs and Luc-mRNA by DLS; format: physicochemical
In short: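 Hydrodynamic size and PDI were read by dynamic light scattering at 23 °C, 175° backscatter, 633 nm. Particles formed by fast injection of ethanolic IAJD stock (80 mg/mL) into nucleoside-modified luciferase mRNA (stock 4.0 mg/mL) in 10 mM acetate pH 4.0, 5 s vortex.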

[3] = pKa measurements of individual IAJD molecules by titration; format: physicochemical; details: ethanol saturated with NaCl, titrated with 0.1 M aqueous HCl; individual IAJD molecules, titration
In short: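 pKa derived by half-equivalence-point analysis of a pH-meter titration curve: 0.1 M HCl added in 7.5 μL increments to a 1.5 mg/mL solution of each molecule in ethanol saturated with NaCl.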

[4] = Stability of DNPs by DLS after storage at 5° C.; format: physicochemical; design: key to Original size distribution type (DLS curve) / Size distribution type (DLS curve): U: DLS curve showed unimodal size distribution; B: DLS curve showed bimodal size distribution; M: DLS curve showed multimodal size distribution; details: for pH Sample: DNPs: IAJD 4.0 mg/mL + Luc-mRNA 0.1 mg/mL, injection in acetate buffer pH 4.00; for PDI / Size (d, nm) / Original size distribution type (DLS curve): IAJD 4.0 mg/mL + Luc-mRNA 0.1 mg/mL; for PDI / Size (d, nm): acetate buffer; for Original size distribution type (DLS curve): before storage, acetate buffer pH 4.00
Protocol: The stability of the DNPs as assayed by DLS. All the samples are prepared in acetate buffer. The stabilities of the constructs were ranked: Excellent (in bold)—the original sizes and distribution remains almost the same after storage; Good—the original relatively big sizes became smaller or broad size distribution became narrower; Not stable—the original relatively big sizes or broad size distribution remained almost the similar level, or the original relatively small sizes became bigger or narrow size distribution became broader.

[5] = Table 16, DNPs from IAJD 4 mg/mL and Luc-mRNA 0.10 mg/mL by injection in acetate buffer (10 mM, pH 4.0)
[6] = Table 17, DNPs used in vivo, IAJD 4 mg/mL, Luc-mRNA 0.10 mg/mL, acetate pH 4.0

| SMILES | Organs with luminescence: spleen [1] | PDI [2, 5] | Size (d, nm) [2, 5] [nm] | PDI [2, 6] | Size (d, nm) [2, 6] [nm] | pKa [3] | pH Sample [4] | Size distribution type (DLS curve) ([4]; after 75 days at 5° C.) | PDI ([4]; after 75 days at 5° C.) | Size (d, nm) ([4]; after 75 days at 5° C.) [nm] | Original size distribution type (DLS curve) [4] | Size distribution type (DLS curve) ([4]; after 70 days at 5° C.) | PDI ([4]; after 70 days at 5° C.) | Size (d, nm) ([4]; after 70 days at 5° C.) [nm] | Size distribution type (DLS curve) ([4]; after 62 days at 5° C.) | PDI ([4]; after 62 days at 5° C.) | Size (d, nm) ([4]; after 62 days at 5° C.) [nm] |
| --- | --- | --- | --- | --- | --- | --- | --- | --- | --- | --- | --- | --- | --- | --- | --- | --- | --- |
| CCCCCCCCCCCOc1cc(COC(=O)c2cc(OCCOCCOCCCC(=O)CCCN3CCCCC3)c(OCCOCCOCCOCc3ccccc3)c(OCCOCCOCCOC(=O)CCCN3CCCCC3)c2)cc(OCCCCCCCCCCC)c1 [IAJD 111] | spleen (weak) | 0.232 | 99 | 0.232 | 99 | 7.58 | 4.84 | (U) | 0.227 | 96 | (U) | – | – | – | – | – | – |
| CCCCCCCCCCCOc1cc(COC(=O)CCCN2CCN(CCO)CC2)cc(OCCCCCCCC)c1 [IAJD 113, 3-(Octyloxy)-5-(undecyloxy)benzyl 4-(4-(2-hydroxyethyl)piperazin-1-yl)butanoate] | Spleen (strong) | 0.511 | 181 | 0.511 | 181 | 6.52 | 4.48 | – | – | – | (B)^b | (B) | 0.365 | 184 | – | – | – |
| CCCCCCCCCCCOc1cc(COC(=O)CCCN2CCN(C)CC2)cc(OCCCCCCCCCC)c1 [IAJD 114, 3-(Decyloxy)-5-(undecyloxy)benzyl 4-(4-methylpiperazin-1-yl)butanoate] | spleen (strong) | 0.351 | 105 | 0.351 | 105 | 6.43 | 4.46 | (B) | 0.369 | 107 | (U) | – | – | – | – | – | – |
| CCCCCCCCCCCOc1cc(COC(=O)CCCN2CCN(CCO)CC2)cc(OCCCCCCCCCC)c1 [IAJD 115, 3-(Decyloxy)-5-(undecyloxy)benzyl 4-(4-(2-hydroxyethyl)piperazin-1-yl)butanoate] | spleen (strong) | 0.367 | 123 | 0.367 | 123 | 6.32 | 4.44 | – | – | – | (U) | (U) | 0.383 | 134 | – | – | – |
| CCCCCCCCCCCCCOc1cc(COC(=O)CCCN2CCN(C)CC2)cc(OCCCCCCCCCCC)c1 [IAJD 116, 3-(Tridecyloxy)-5-(undecyloxy)benzyl 4-(4-methylpiperazin-1-yl)butanoate] | spleen (strong) | 0.264 | 150 | 0.264 | 150 | 6.51 | 4.47 | – | – | – | (U) | – | – | – | (U) | 0.272 | 168 |
| CCCCCCCCCCCCCOc1cc(COC(=O)CCCN2CCN(CCO)CC2)cc(OCCCCCCCCCCC)c1 [IAJD 117, 3-(Tridecyloxy)-5-(undecyloxy)benzyl 4-(4-(2-hydroxyethyl)piperazin-1-yl)butanoate] | spleen (strong) | 0.367 | 255 | 0.367 | 255 | 6.49 | 4.40 | – | – | – | (B) | (B) | 0.312 | 323 | – | – | – |
| CCCCCCCCCCCCCCCOc1cc(COC(=O)CCCN2CCN(C)CC2)cc(OCCCCCCCCCCC)c1 [IAJD 118, 3-(Pentadecyloxy)-5-(undecyloxy)benzyl 4-(4-methylpiperazin-1-yl)butanoate] | spleen (strong) | 0.278 | 104 | 0.278 | 104 | 6.33 | 4.43 | (B) | 0.262 | 105 | (B) | – | – | – | – | – | – |
| CCCCCCCCCCCCCCCOc1cc(COC(=O)CCCN2CCN(CCO)CC2)cc(OCCCCCCCCCCC)c1 [IAJD 119, 3-(Pentadecyloxy)-5-(undecyloxy)benzyl 4-(4-(2-hydroxyethyl)piperazin-1-yl)butanoate] | spleen (strong) | 0.459 | 163 | 0.459 | 163 | 6.44 | 4.36 | – | – | – | (M) | – | – | – | (B) | 0.489 | 254 |
| CCCCCCCCCCCCCCCCOc1cc(COC(=O)CCCN2CCN(CCO)CC2)cc(OCCCCCCCCCCC)c1 [IAJD 120, 3-(Hexadecyloxy)-5-(undecyloxy)benzyl 4-(4-(2-hydroxyethyl)piperazin-1-yl)butanoate] | Spleen (strong) | 0.474 | 212 | 0.474 | 212 | 6.37 | 4.40 | – | – | – | (B) | (B) | 0.289 | 177 | – | – | – |
| CCCCCCCCCCCOc1cc(COC(=O)CCCN2CCN(CCO)CC2)cc(OCCCCCCCCC)c1 [IAJD 122, 3-(Nonyloxy)-5-(undecyloxy)benzyl 4-(4-(2-hydroxyethyl)piperazin-1-yl)butanoate] | spleen (strong) | 0.337 | 215 | 0.337 | 215 | 6.66 | 4.49 | – | – | – | (B) | – | – | – | (B) | 0.346 | 192 |
